{"source": "ChEMBL document CHEMBL1201862", "about": "“PubChem BioAssay data set” (2004)", "key": {"[1]": {"biological_target": "Coagulation factor XII (Homo sapiens, UniProt P00748)", "sequence (P00748 20-372 limits assumed)": "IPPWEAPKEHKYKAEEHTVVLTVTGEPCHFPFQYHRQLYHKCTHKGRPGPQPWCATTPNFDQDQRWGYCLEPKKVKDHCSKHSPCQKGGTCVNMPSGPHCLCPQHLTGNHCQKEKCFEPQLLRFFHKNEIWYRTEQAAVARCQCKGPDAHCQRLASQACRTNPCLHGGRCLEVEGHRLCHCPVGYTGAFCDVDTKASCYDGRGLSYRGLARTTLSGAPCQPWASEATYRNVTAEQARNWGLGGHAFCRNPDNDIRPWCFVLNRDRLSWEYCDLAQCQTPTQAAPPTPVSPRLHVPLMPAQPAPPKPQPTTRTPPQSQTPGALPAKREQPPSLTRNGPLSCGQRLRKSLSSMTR", "sequence (P00748 373-615 limits assumed)": "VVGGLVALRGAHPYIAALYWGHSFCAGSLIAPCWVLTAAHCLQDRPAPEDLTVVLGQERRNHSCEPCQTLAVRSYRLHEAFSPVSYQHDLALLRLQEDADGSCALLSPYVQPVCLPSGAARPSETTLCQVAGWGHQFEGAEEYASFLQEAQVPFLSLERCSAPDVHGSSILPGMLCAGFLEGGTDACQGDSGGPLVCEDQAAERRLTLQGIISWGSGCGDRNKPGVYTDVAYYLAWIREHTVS", "type": "functional"}, "[2]": {"biological_target": "T1, Peroxisome proliferator-activated receptor gamma (Homo sapiens, UniProt P37231)", "T1 sequence (P37231 whole entry)": "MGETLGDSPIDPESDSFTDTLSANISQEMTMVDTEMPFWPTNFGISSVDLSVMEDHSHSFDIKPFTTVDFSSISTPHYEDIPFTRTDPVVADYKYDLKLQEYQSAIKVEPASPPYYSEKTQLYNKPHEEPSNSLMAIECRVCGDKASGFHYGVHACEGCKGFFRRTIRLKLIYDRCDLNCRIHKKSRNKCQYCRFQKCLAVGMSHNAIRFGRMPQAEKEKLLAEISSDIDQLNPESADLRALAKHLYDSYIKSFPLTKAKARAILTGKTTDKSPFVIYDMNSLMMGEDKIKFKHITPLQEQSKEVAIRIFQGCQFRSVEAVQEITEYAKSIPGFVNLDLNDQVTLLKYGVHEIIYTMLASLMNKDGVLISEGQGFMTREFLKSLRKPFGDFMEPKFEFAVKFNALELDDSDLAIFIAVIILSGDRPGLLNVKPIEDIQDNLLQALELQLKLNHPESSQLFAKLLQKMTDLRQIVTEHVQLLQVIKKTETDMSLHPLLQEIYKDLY", "assay": "competitive ligand displacement at PPARg – biochemical, fluorescence polarization, PolarScreen, PPARg partial agonist project, dose response (AID 504453)"}, "[3]": {"biological_target": "T1, Peroxisome proliferator-activated receptor gamma", "assay": "competitive ligand displacement at PPARg – biochemical, TR-FRET, LanthaScreen, PPARg partial agonist project, dose response (AID 504446)"}, "[4]": {"biological_target": "T1, Peroxisome proliferator-activated receptor gamma", "assay": "PPARg transcriptional activation, reporter cells – cell-based, luminescence, assay provider, dose response (AID 504447)", "type": "functional"}, "[5]": {"biological_target": "T2, Cannabinoid receptor 2 (Homo sapiens, UniProt P34972)", "T2 sequence (P34972 whole entry)": "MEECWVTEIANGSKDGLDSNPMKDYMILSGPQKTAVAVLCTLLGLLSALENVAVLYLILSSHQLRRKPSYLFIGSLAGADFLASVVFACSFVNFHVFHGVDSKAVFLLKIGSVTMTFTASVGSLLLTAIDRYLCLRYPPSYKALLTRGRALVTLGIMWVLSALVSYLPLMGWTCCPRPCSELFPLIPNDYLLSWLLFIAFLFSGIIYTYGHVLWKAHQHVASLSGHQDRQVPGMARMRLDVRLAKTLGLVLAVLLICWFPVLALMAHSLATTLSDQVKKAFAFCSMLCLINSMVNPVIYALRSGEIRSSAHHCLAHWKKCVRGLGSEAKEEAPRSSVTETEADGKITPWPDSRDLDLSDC", "assay": "SAR analysis of agonists of the Cannabinoid Receptor 2 using an Image-Based Assay - Set 3. [Related pubchem assays (depositor defined):AID2013, AID2026]", "type": "functional"}, "[6]": {"biological_target": "T3, Cannabinoid receptor 1 (Homo sapiens, UniProt P21554)", "T3 sequence (P21554 whole entry)": "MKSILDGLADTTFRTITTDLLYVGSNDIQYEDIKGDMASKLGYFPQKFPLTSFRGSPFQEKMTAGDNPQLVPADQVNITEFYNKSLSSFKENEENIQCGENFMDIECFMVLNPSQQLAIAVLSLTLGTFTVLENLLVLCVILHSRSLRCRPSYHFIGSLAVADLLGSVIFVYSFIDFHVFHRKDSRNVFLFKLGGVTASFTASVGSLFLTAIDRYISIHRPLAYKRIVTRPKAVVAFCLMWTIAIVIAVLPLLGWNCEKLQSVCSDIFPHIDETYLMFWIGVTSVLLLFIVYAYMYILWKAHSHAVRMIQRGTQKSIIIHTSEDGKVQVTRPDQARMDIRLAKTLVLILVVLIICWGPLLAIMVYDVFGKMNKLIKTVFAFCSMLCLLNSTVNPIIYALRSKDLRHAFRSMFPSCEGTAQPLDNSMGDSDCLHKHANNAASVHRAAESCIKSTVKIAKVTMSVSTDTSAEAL", "assay": "SAR analysis of antagonists of the Cannabinoid Receptor 1 using an Image-Based Assay - Set 4. [Related pubchem assays (depositor defined):AID2013, AID2026]", "type": "functional"}, "[7]": {"biological_target": "T4, G-protein coupled receptor 35 (Homo sapiens, UniProt Q9HC97)", "T4 sequence (Q9HC97 whole entry)": "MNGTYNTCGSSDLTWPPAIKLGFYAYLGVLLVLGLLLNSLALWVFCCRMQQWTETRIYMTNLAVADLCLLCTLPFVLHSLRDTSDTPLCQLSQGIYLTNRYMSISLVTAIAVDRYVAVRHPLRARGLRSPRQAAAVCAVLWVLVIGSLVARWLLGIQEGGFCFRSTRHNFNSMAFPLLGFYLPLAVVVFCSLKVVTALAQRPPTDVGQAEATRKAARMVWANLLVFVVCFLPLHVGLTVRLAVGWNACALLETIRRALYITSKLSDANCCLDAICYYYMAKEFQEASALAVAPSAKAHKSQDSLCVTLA", "assay": "SAR analysis of Antagonists of the GPR35 Receptor using an Image-Based Assay - Set 6. [Related pubchem assays (depositor defined):AID2013, AID2026]", "type": "functional"}, "[8]": {"biological_target": "G-protein coupled receptor 55 (Homo sapiens, UniProt Q9Y2T6)", "sequence (Q9Y2T6 whole entry)": "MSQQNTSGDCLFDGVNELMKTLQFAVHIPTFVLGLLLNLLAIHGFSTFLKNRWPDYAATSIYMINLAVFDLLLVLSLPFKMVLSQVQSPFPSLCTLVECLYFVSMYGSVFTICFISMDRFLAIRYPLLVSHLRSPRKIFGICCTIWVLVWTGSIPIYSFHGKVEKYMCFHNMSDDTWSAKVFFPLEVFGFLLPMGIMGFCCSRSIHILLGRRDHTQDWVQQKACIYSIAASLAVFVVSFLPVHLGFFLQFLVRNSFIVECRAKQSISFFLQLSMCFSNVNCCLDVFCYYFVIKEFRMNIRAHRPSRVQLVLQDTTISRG", "assay": "SAR Analysis of Selective Antagonists of GPR55 using an Image-Based Assay - Set 4. [Related pubchem assays (depositor defined):AID2013, AID2026]", "type": "functional"}, "[9]": {"biological_target": "T3, Cannabinoid receptor 1", "assay": "SAR analysis of agonists of the Cannabinoid Receptor 1 using an Image-Based Assay - Set 4. [Related pubchem assays (depositor defined):AID2013, AID2026]", "type": "functional"}, "[10]": {"biological_target": "T4, G-protein coupled receptor 35", "assay": "SAR analysis of Agonists of the GPR35 Receptor using an Image-Based Assay - Set 4. [Related pubchem assays (depositor defined):AID2013, AID2026]", "type": "functional"}, "[11]": {"biological_target": "T2, Cannabinoid receptor 2", "assay": "SAR analysis of antagonists of the Cannabinoid Receptor 2 using an Image-Based Assay - Set 3. [Related pubchem assays (depositor defined):AID2013, AID2026]", "type": "functional"}}, "note": "Activity calls are given as the source filed them."}
{"smiles": "COc1cc(-c2nnco2)cc(OC)c1OC", "values": [{"measurement": "IC50", "setting": "[1]", "result": "> 50 µM (inactive)"}]}
{"smiles": "COc1ccc2nc(N3C(=O)C(O)=C(C(=O)c4ccco4)C3c3ccc(C)o3)sc2c1", "note": "(stereo unspecified)", "values": [{"measurement": "IC50", "setting": "[2]", "result": "5 µM (active)"}, {"measurement": "IC50", "setting": "[3]", "result": "1.2 µM (active)"}, {"measurement": "EC50", "setting": "[4]", "result": "5 µM (active)"}]}
{"smiles": "N=c1c(C(=O)NCCc2ccccc2)cc2c(=O)n3ccccc3nc2n1C1CCCC1", "values": [{"measurement": "EC50", "setting": "[5]", "result": "3.61 µM (active)"}, {"measurement": "IC50", "setting": "[6]", "result": "> 32 µM (inactive)"}, {"measurement": "IC50", "setting": "[7]", "result": "> 32 µM (inactive)"}, {"measurement": "IC50", "setting": "[8]", "result": "> 32 µM (inactive)"}, {"measurement": "EC50", "setting": "[9]", "result": "> 32 µM (inactive)"}, {"measurement": "EC50", "setting": "[10]", "result": "> 32 µM (inactive)"}, {"measurement": "IC50", "setting": "[11]", "result": "> 32 µM (inactive)"}]}
